The RepoRT retention time repository (doi:10.1016/j.scitotenv.2015.08.078)

assay: RP, Waters ACQUITY UPLC BEH C18, 100 × 2.1 mm, 1.7 µm, 0.3 mL/min, estimated dead time 0.73 min; A: water + 0.1% formic acid, pH 3; B: methanol + 0.1% formic acid, pH 3; gradient (min/%B) 0/10 14/90 16/90 18/10; conditions: stereoisomer not certain

Row | Compound | LC retention time
1 | C#CCOC(=O)C(C)Oc1ccc(Oc2ncc(Cl)cc2F)cc1 (stereo not given) [Clodinafop-propargyl] | 11.5 min
2 | CCCCc1c(C)nc(NCC)[nH]c1=O [Ethirimol] | 8.99 min
3 | CC(CCc1ccc(O)cc1)NCC(O)c1ccc(O)cc1 (stereo not given) [Ractopamine] | 4.5 min
4 | CN(Cc1cc(Br)cc(Br)c1N)C1CCCCC1 [Bromhexine] | 14.1 min
5 | COP(=O)(OC)Oc1ccc(S(C)(=O)=O)c(C)c1 [Fenoxon sulfone] | 5.35 min
6 | CCCCN(CC)C(=O)SCCC [Pebulate (Tillam)] | 12.1 min
7 | CN(C)C(=O)Nc1cccc(C(F)(F)F)c1 [Fluomethuron] | 8.25 min
8 | CCCCOC(=O)c1ccccc1C(=O)OCc1ccccc1 [Benzyl butyl phthalate] | 12.4 min
9 | COP(=S)(OC)Oc1ccc(Sc2ccc(OP(=S)(OC)OC)cc2)cc1 [Temephos (Abate)] | 13 min
10 | CC12CCC(=O)C=C1CCC1C2C(O)CC2(C)C(C(=O)CO)CCC12 (stereo not given) [Corticosterone] | 9.37 min
11 | CC(C)OC(=O)C(C)N(C(=O)c1ccccc1)c1ccc(F)c(Cl)c1 (stereo not given) [Flamprop-isopropyl] | 11.7 min
12 | CN(C)c1nc(=O)n(C2CCCCC2)c(=O)n1C [Hexazinone] | 7.56 min
13 | O=C(CCCN1CCN(c2ccccn2)CC1)c1ccc(F)cc1 [Azaperone] | 5.63 min
14 | C=CC1(C)CC(OC(=O)CSCCN(CC)CC)C2(C)C(C)CCC3(CCC(=O)C32)C(C)C1O (stereo not given) [Tiamulin] | 9.22 min
15 | CNC(C)Cc1ccc2c(c1)OCO2 (stereo not given) [MDMA] | 3.79 min
16 | CC12CCC(O)CC1=CCC1C2CCC2(C)C(O)CCC12 (stereo not given) [Androstenediol (AED)] | 12.9 min
17 | CCOP(=S)(OCC)ON=C(C#N)c1ccccc1 [Phoxim] | 11.9 min
18 | CCOP(=S)(OCC)Oc1cc(C)nc(C(C)C)n1 [Diazinon] | 12.5 min

Row | Compound | LC retention time
19 | CCOP(=S)(Oc1ccc([N+](=O)[O-])cc1)c1ccccc1 (stereo not given) [EPN] | 12.2 min
20 | CCC(C)C1OC2(C=CC1C)CC1CC(CC=C(C)C(OC3CC(OC)C(OC4CC(OC)C(NC(C)=O)C(C)O4)C(C)O3)C(C)C=CC=C3COC4C(O)C(C)=CC(C(=O)O1)C34O)O2 (stereo not given) [Eprinomectin] | 15.1 min
21 | CC(C)NCC(O)COc1ccc(CC(N)=O)cc1 (stereo not given) [Atenolol] | 8.74 min
22 | CC(C)(C)C(O)(CCc1ccc(Cl)cc1)Cn1cncn1 (stereo not given) [Tebuconazole] | 11.8 min
23 | COC(=O)c1c(Cl)nn(C)c1S(=O)(=O)NC(=O)Nc1nc(OC)cc(OC)n1 [Halosulfuron methyl] | 7.16 min
24 | CCC(C)(CC)c1cc(NC(=O)c2c(OC)cccc2OC)on1 [Isoxaben] | 10.4 min
25 | CNC(=O)ON=C(SC)C(=O)N(C)C [Oxamyl] | 2.84 min
26 | CCCCNC(=O)n1c(NC(=O)OC)nc2ccccc21 [Benomyl] | 11.6 min
27 | CCOc1cc(OP(=S)(OC)OC)nc(CC)n1 [Etrimfos] | 11.6 min
28 | CCCCC(CC)COC(=O)CCCCC(=O)OCC(CC)CCCC (stereo not given) [Bis-(2-ethylhexyl) adipate] | 15.3 min
29 | CCC(C(=O)O)C1OC(C(C)C(O)C(C)C(=O)C(CC)C2OC3(C=CC(O)C4(CCC(C)(C5CCC(O)(CC)C(C)O5)O4)O3)C(C)CC2C)C(C)CC1C (stereo not given) [Narasin] | 16.5 min
30 | CCNc1nc(N)nc(Cl)n1 [Desisopropylatrazine] | 4.38 min
31 | CCOC(=O)c1ccccc1C(=O)OCC [Diethyl phthalate] | 9.3 min
32 | CC(C)(C)C(=O)C(Oc1ccc(Cl)cc1)n1cncn1 (stereo not given) [Triadimefon] | 10.6 min
33 | CC(C)N(C(=O)CCl)c1ccccc1 [Propachlor] | 8.99 min
34 | COC(=O)c1cc(Oc2ccc(Cl)cc2Cl)ccc1[N+](=O)[O-] [Bifenox] | 12.2 min
35 | CC1=C(C(=O)Nc2ccccc2)SCCO1 [Carboxin] | 7.77 min
